According to paper PMC7018972, “Novel and selective inactivators of Triosephosphate isomerase with anti-trematode activity” (Scientific Reports, 2020):

target: Fasciola hepatica TIM (FhTIM) (Fasciola hepatica, UniProt S4UI50); test: Inhibition of recombinant FhTIM, coupled enzyme assay; type: biochemical; conditions: Figure 1, ranges of inhibitory activity; read-out: IC50 range
Description: Expression and purification of proteins: FhTIM, RabbitTIM and HsTIM were expressed in Escherichia coli and purified as described in the literature[31],[37]. […] Before use, extensive dialysis against 100 mM triethanolamine/10 mM EDTA (pH 7.4) was performed. […] Enzymatic activity was determined following the conversion of glyceraldehydes-3-phosphate into dihydroxyacetone phosphate in a coupled enzyme assay. The decrease in absorbance at 340 nm was followed in a multiplate reader VarioskanTM Flash Multimode Reader (Thermo ScientificTM, Waltham, MA, USA) at 38 °C. The reaction mixture (1 mL, pH 7.4) contained 100 mM triethanolamine, 10 mM EDTA, 0.2 mM NADH, 1 mM glyceraldehydes-3-phosphate and 0.9 units of α-glycerol phosphate dehydrogenase. The reaction was initiated by the addition of 5 ng/mL of the TIM of interest. For the inhibition studies, TIM was incubated at a concentration of 5 mg/mL in a buffer containing 100 mM triethanolamine, 10 mM EDTA, pH 7.4 and 10% of DMSO at 37 °C for 1 h. The mixture also contained the compounds, dissolved in DMSO, at the indicated concentrations. After 1 h, 10 µL were withdrawn and added to a final volume of 100 µL of the reaction mixture for the activity assay. The inhibition assay was performed in a 96-well microplate. […] The experiments were performed in triplicate in two independent experiments.

Fasciola hepatica TIM (FhTIM), sequence (S4UI50 entry or part of it): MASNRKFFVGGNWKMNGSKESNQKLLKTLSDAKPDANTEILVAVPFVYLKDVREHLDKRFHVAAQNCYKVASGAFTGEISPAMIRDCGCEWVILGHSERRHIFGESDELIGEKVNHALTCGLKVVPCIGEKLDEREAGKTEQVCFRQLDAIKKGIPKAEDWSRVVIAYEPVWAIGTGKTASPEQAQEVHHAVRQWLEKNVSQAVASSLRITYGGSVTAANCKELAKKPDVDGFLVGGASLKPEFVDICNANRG

IC50 [µM] | SMILES
< 50 | [O-][n+]1c2ccc(O)cc2[n+]([O-])c2cc(Cl)c(Cl)cc21 [Compound 183]

same assay, conditions: Table 1S, screening of 340 compounds in FhTIM; table head prints no unit, µM per b8/b9; read-out: IC50

SMILES | IC50 [µM]
C=CCn1c(-c2csc(=NN=Cc3ccc(S(=O)(=O)O)o3)n2-c2ccccc2)csc1=NN=CC=Cc1ccco1 [Compound 785] | > 100
O=[N+]([O-])c1ccc2c(c1)c(O)nn2CCOCCBr [Compound 517] | > 100
O=S(=O)(NCc1ccccc1)NCc1ccccc1 [Compound 119] | > 100
C=CCn1c(-c2ccc(Cl)cc2)csc1=NN=Cc1ccc2no[n+]([O-])c2c1 [Compound 304] | > 100
O=C(NN=Cc1ccccc1O)c1ccccc1Cl [Compound 1250] | > 100
C=CCNC(=S)NN=C(C=CC=Cc1ccc(C)o1)C=CC=Cc1ccc(C)o1 [Compound 900] | > 100
Nc1ccc([N+](=O)[O-])cc1 [Compound 1196] | > 100
O=[N+]([O-])c1ccc2c(c1)c(O)nn2Cc1ccccc1CN1CCCCC1 [Compound 456] | > 100
C=CCn1c(C(=O)O)csc1=NN=Cc1ccc(S(=O)(=O)O)o1 [Compound 913] | > 100
C=CCn1c(C)csc1=NN=CC=Cc1cccs1 [Compound 1128] | > 100
C=CCNC(=S)NN=C(C)c1cc2ccccc2o1 [Compound 787] | > 100
O=C(C=CC=Cc1ccco1)C=CC=Cc1ccco1 [Compound 793] | > 100
NC(=S)NN=Cc1ccc([N+](=O)[O-])s1 [Compound 283] | > 100
C=CCn1c(-c2ccc(Cl)cc2)csc1=NN=CC=Cc1ccco1 [Compound 266] | > 100
C=CCn1c(C(=O)CN2CCN(CC=Cc3ccccc3)CC2)csc1=NN=CC=Cc1ccco1 [Compound 1112] | > 100
O=c1cc(-c2ccccc2)oc2ccccc12 [Compound 148] | > 100
Cc1nnc[n+]([O-])c1CC(c1ccc([N+](=O)[O-])cc1)N1CCOCC1 (stereo not shown) [Compound 360] | > 100
C=CCn1c(-c2csc(=NN=Cc3ccccc3)n2-c2ccccc2)csc1=NN=Cc1ccc2ccccc2c1 [Compound 783] | > 100
COc1nn(CCOCCN(C)CC=Cc2ccccc2)c2ccc([N+](=O)[O-])cc12 [Compound 504] | > 100
C=CCNC(=S)NN=Cc1ccc([N+](=O)[O-])s1 [Compound 136] | > 100
O=C1CC(=O)N(Cc2ccccc2)S(=O)(=O)N1Cc1ccccc1 [Compound 358] | > 100
ON=Cc1ccc(Br)cc1 [Compound 1107] | > 100
C(=Cc1ccco1)C=NN=c1scc(-c2ccccc2)n1-c1ccccc1 [Compound 1132] | > 100
O=[N+]([O-])c1ccc2c(c1)c(OCc1ccccc1)nn2CCOCCBr [Compound 516] | > 100
O=C1C(=Cc2cccs2)CCCC1=Cc1cccs1 [Compound 807] | > 100
C=CCNC(=S)NN=CC=Cc1ccccc1 [Compound 300] | > 100
O=C(CBr)C(=O)CSC(=NN=Cc1ccccc1)Nc1ccccc1 [Compound 777] | > 100
CCOC(=O)c1nc2ccc([N+](=O)[O-])cc2n1OC(=O)OCC(C)C [Compound 545] | 100
Brc1ccc(-c2c[se]c(=NN=CC=Cc3ccccc3)n2CCN2CCOCC2)cc1 [Compound 1222] | 50 to 100

The next lines start with the values.

IC50 [µM] | SMILES
> 100 | C=CCNC(=S)NN=CC=Cc1ccc([N+](=O)[O-])s1 [Compound 142]
> 100 | C=CCn1c(-c2ccc([N+](=O)[O-])cc2)csc1=NN=CC=Cc1ccc([N+](=O)[O-])s1 [Compound 131]
> 100 | O=C(/C=C/c1ccc([N+](=O)[O-])o1)N1CCN(C/C=C/c2ccccc2)CC1 [Compound 51]
> 100 | CN1CC(=CC=Cc2ccco2)C(=O)C(=CC=Cc2ccco2)C1 [Compound 1282]
> 100 | O=[N+]([O-])c1ccc(C=NN=c2[nH]c(-c3ccc(Cl)cc3)cs2)s1 [Compound 267]
> 100 | N#Cc1c(-c2ccccc2)no[n+]1[O-] [Compound 650]
> 100 | C=CCn1c(-c2ccccc2)csc1=NN=Cc1ccco1 [Compound 1109]
> 100 | C=CCNC(=S)NN=Cc1ccc2c(c1)OCO2 [Compound 280]
> 100 | Nc1nc(-c2ccc(Cl)cc2)cs1 [Compound 813]
> 100 | NC(=NO)c1ccc(Br)cc1 [Compound 1105]
> 100 | O=C(O)c1ccc(Cl)[n+]([O-])c1 [Compound 472]
> 100 | Cc1ccc(C=CC=CC(C=CC=Cc2ccc(C)o2)=NN2CCN(CC=Cc3ccccc3)CC2)o1 [Compound 1102]
> 100 | C=CCNc1nnc(-c2ccc([N+](=O)[O-])s2)s1 [Compound 292]
> 100 | C(=Cc1ccco1)C=NN1CCN(CC=Cc2ccccc2)CC1 [Compound 912]
> 100 | Nc1nc(-c2ccccc2)cs1 [Compound 810]
> 100 | COc1ccc(CN2c3nc(-c4ccccc4OC)[nH]c3C(N)=NS2(=O)=O)cc1 [Compound 707]
> 100 | Cc1ccc(-c2cc(C(F)(F)F)nn2-c2ccc(S(N)(=O)=O)cc2)cc1 [Compound 1121]
> 100 | C=CCn1c(-c2ccc(Cl)cc2)csc1=NN=Cc1ccc([N+](=O)[O-])s1 [Compound 145]
50 to 100 | S=C(NN=CC=CC=Cc1cccs1)Nc1ccccc1 [Compound 310]

IC50 [µM] | SMILES
> 100 | Cc1c(C=NNC(N)=S)no[n+]1[O-] [Compound 1283]
> 100 | COCCNC(=O)/C=C/c1ccc([N+](=O)[O-])o1 [Compound 60]
> 100 | O=C1CSC(=NN=C/C=C/C=C/c2cccs2)N1c1ccccc1 [Compound 313]
> 100 | O=S(=O)(NCCc1ccccc1)NCCc1ccccc1 [Compound 120]
> 100 | O=C1C(=Cc2ccco2)CCCC1=Cc1ccco1 [Compound 808]
> 100 | O=S(=O)(O)c1ccc(C=NN=c2scc(-c3csc(=NN=Cc4ccc(S(=O)(=O)O)o4)n3-c3ccccc3)n2-c2ccccc2)o1 [Compound 781]
> 100 | C=CCN1C(=O)CSC1=NN=CC=CC=Cc1cccs1 [Compound 312]
> 100 | NNC(=O)c1ccccn1 [Compound 717]
50 to 100 | O=C1C(=CC=Cc2ccccc2)CCC1=CC=Cc1ccccc1 [Compound 1246]
> 100 | Cc1csc(=NN=CC=Cc2ccco2)n1-c1ccccc1 [Compound 1131]
> 100 | COc1cc(/C=C/C(=O)CC(=O)/C=C/c2cc(OC)c3oc(=O)cc(C)c3c2)ccc1O [Compound 915]
> 100 | CC(=O)Nc1ccc(C=C2CN(C)CC(=Cc3ccc(NC(C)=O)cc3)C2=O)cc1 [Compound 1281]
> 100 | Cc1c(C=NNC(N)=O)no[n+]1[O-] [Compound 159]
> 100 | O=C(C=Cc1cccc2ccccc12)c1ccccc1 [Compound 1266]
> 100 | C=CCn1c(-c2ccc(OC)cc2)csc1=NN=Cc1ccc([N+](=O)[O-])s1 [Compound 132]
50 to 100 | C=CCn1c(-c2ccccc2)csc1=NN=CC=Cc1cccs1 [Compound 875]
> 100 | CC(=O)N(C1=NN(C(C)=O)C(c2cccs2)S1)c1ccccc1 (stereo not shown) [Compound 284]
> 100 | C=CCN1C(=O)CSC1=NN=Cc1ccc([N+](=O)[O-])s1 [Compound 129]
> 100 | CCOC(=O)On1c(C(=O)OCC)nc2ccc([N+](=O)[O-])cc21 [Compound 660]

same assay, conditions: recombinant FhTIM, 1 h incubation with compound at 37 °C; read-out: IC50

IC50 [µM] | SMILES
25 ± 3 | [O-][n+]1c2ccc(O)cc2[n+]([O-])c2cc(Cl)c(Cl)cc21 [Compound 183]
79 ± 7 | S=C(NN=CC=CC=Cc1cccs1)Nc1ccccc1 [Compound 310]
